Counter-ions that a name gives are not always drawn.

Here are results for seven compounds from patent publication US6828330B2, “Quinuclidine-substituted hetero-bicyclic aromatic compounds for the treatment of disease” (Pharmacia & Upjohn Company, priority 2001, dated 2004).

The target in this assay is T1, α7 nAChR (Rattus norvegicus, UniProt Q05941).
T1 construct: the brains (whole brain minus cerebellum) are dissected quickly, weighed and homogenized; from tissue; host or cells: rat brain (whole brain minus cerebellum) membranes
Description: [3H]-MLA competition binding assay in rat brain membranes. As to conditions: inhibition of [3H]-MLA binding (3.0 to 4.0 nM), rat brain homogenate (whole brain minus cerebellum), 1 hr at 25° C, Cheng-Prusoff. How it is done:
Materials and Methods for Identifying Binding Constants
Membrane Preparation. Male Sprague-Dawley rats (300-350 g) are sacrificed by decapitation and the brains (whole brain minus cerebellum) are dissected quickly, weighed and homogenized in 9 volumes/g wet weight of ice-cold 0.32M sucrose using a rotating pestle on setting 50 (10 up and down strokes). The homogenate is centrifuged at 1,000×g for 10 minutes at 4° C. The supernatant is collected and centrifuged at 20,000×g for 20 minutes at 4° C. The resulting pellet is resuspended to a protein concentration of 1-8 mg/mL. Aliquots of 5 mL homogenate are frozen at −80° C. until needed for the assay. On the day of the assay, aliquots are thawed at room temperature and diluted with Kreb's −20 mM Hepes buffer pH 7.0 (at room temperature) containing 4.16 mM NaHCO3, 0.44 mM KH2PO4, 127 mM NaCl, 5.36 mM KCl, 1.26 mM CaCl2, and 0.98 mM MgCl2, so that 25-150 μg protein are added per test tube. Proteins are determined by the Bradford method (Bradford, M. M., Anal. Biochem., 72, 248-254, 1976) using bovine serum albumin as the standard.
Binding Assay. For saturation studies, 0.4 mL homogenate are added to test tubes containing buffer and various concentrations of radioligand, and are incubated in a final volume of 0.5 mL for 1 hr at 25° C. Nonspecific binding was determined in tissues incubated in parallel in the presence of 0.05 ml MLA for a final concentration of 1 μM MLA, added before the radioligand. In competition studies, drugs are added in increasing concentrations to the test tubes before addition of 0.05 ml [^3H]-MLA for a final concentration of 3.0 to 4.0 nM [^3H]-MLA. The incubations are terminated by rapid vacuum filtration through Whatman GF/B glass filter paper mounted on a 48 well Brandel cell harvester. Filters are pre-soaked in 50 mM Tris HCl pH 7.0-0.05% polyethylenimine. The filters are rapidly washed two times with 5 mL aliquots of cold 0.9% saline and then counted for radioactivity by liquid scintillation spectrometry.
Data Analysis. In competition binding studies, the inhibition constant (Ki) was calculated from the concentration dependent inhibition of [^3H]-MLA binding obtained from non-linear regression fitting program according to the Cheng-Prusoff equation (Cheng, Y. C. and Prussoff, W. H., Biochem. Pharmacol., 22, pp. 3099-3108, 1973). Hill coefficients were obtained using non-linear regression (GraphPad Prism sigmoidal dose-response with variable slope).

T1 sequence (Q05941 23-502): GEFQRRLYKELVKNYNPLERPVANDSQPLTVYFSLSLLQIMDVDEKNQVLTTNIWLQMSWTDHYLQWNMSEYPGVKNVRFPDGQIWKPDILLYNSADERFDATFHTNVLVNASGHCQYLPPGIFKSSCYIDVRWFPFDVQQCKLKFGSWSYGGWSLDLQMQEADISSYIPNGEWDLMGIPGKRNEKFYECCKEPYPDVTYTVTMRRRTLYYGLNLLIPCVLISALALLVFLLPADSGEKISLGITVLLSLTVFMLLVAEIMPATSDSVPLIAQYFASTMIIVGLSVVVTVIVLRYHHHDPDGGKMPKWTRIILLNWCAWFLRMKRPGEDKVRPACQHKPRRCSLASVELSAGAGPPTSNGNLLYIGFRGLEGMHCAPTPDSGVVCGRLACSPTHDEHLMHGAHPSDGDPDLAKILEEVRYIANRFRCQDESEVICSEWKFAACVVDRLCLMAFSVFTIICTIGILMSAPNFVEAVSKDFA

The compound `O=C(N[C@H]1CN2CCC1CC2)c1ccc2ocnc2c1` [Example 3, N-((3R)1-azabicyclo[2.2.2]oct-3-yl)-1,3-benzoxazole-5-carboxamide.fumarate] gave an inhibition constant Ki of 32 nM.
Compound `Cc1nc2cc(C(=O)N[C@H]3CN4CCC3CC4)ccc2o1` [Example 4, N-((3R)1-azabicyclo[2.2.2]oct-3-yl)-2-methyl-1,3-benzoxazole-5-carboxamide.fumarate] displayed a Ki of 305 nM.
`O=C(N[C@H]1CN2CCC1CC2)c1ccc2ncsc2c1` [Example 5, N-((3R)1-azabicyclo[2.2.2]oct-3-yl)-1,3-benzothiazole-6-carboxamide.fumarate] gave a Ki of 30 nM.
The figure for `O=C(N[C@H]1CN2CCC1CC2)c1ccc2c(c1)CCC2` [Example 6, N-((3R)1-azabicyclo[2.2.2]oct-3-yl)indane-5-carboxamide.fumarate] is 110 nM.
The figure for `O=C(N[C@H]1CN2CCC1CC2)c1ccc2c(c1)OCO2` [Example 7, N-((3R)-1-azabicyclo[2.2.2]oct-3-yl)-1,3-benzodioxole-5-carboxamide, 4-methylbenzenesulfonate] is 24 nM; for `C[C@H]1[C@H](NC(=O)c2ccc3ncsc3c2)C2CCN1CC2` [Example 11, N-[(2S,3R)-2-methyl-1-azabicyclo[2.2.2]oct-3-yl]-1,3-benzothiazole-6-carboxamide hydrochloride] it is 92 nM.
With `C[C@H]1[C@H](NC(=O)c2nc3ccccc3s2)C2CCN1CC2` [Example 1005, N-[(2S,3R)-2-methyl-1-azabicyclo[2.2.2]oct-3-yl]-1,3-benzothiazole-2-carboxamide hydrochloride], affinity was put at a Ki of 73 nM.
